The source of these data is patent US20230355647A1, “Marker for determining anti-cancer effects of mitochondrial oxidative phosphorylation pathway inhibitor” (NANJING SHIJIANG MEDICINE TECHNOLOGY CO., LTD, priority 2020, published 2023).

One assay deals with COLO 320HSR. Kind of assay: Cell viability (CellTiter-Glo), COLO 320HSR. Conditions: Homo sapiens; COLO 320HSR cell line, 3-4 days of culture. Type of assay: cell-based. On the procedure: (§1) Cell viability was detected using the Promega CellTiter-Glo kit, the kit reflected cell viability by directly measuring intracellular ATP content. The inhibitory effect (IC50 value) of Gboxin, a mitochondrial oxidative phosphorylation pathway inhibitor, on different tumor cell lines was tested in the Example. The name, source, and culture condition of each tumor cell line were as follows:
Cell line COLO 320HSR (ATCC, No. CCL-220.1) was cultured in 10% fetal bovine serum-containing RPMI1640 medium (+P/S).
(§2) The above tumor cells were cultured in the relevant medium (+P/S), and incubated for 3 h, then the gradient diluted Gboxin was added, and IC50 (50% inhibiting concentration) was measured after 3-4 days of culture.

The test system of another assay is U-87 MG. Kind of assay: Cell viability (CellTiter-Glo), U-87 MG. It counts as cell-based. The settings on record: Homo sapiens; U-87 MG cell line, 3-4 days of culture. The method, then: as §1
Cell line U-87 MG (ATCC, No. HTB-14) was cultured in 10% fetal bovine serum-containing EMEM medium (+P/S).
as §2

The next assay concerns Gp2D. Kind of assay: Cell viability (CellTiter-Glo), Gp2D. Type of assay: cell-based. Conditions: Homo sapiens; Gp2D cell line, 3-4 days of culture. On the procedure: as §1
Cell line Gp2D (ECACC, No. 95090714) was cultured in 10% fetal bovine serum-containing DMEM medium (+P/S).
as §2

Another assay concerns OCI-M1. Kind of assay: Cell viability (CellTiter-Glo), OCI-M1. It counts as cell-based. Conditions: OCI-M1 cell line, 3-4 days of culture. On the procedure:
as §1
Cell line OCI-M1 (DSMZ, No. ACC-529) was cultured in 20% fetal bovine serum-containing IMDM medium (+P/S).
as §2

Another assay has as its system GAK. Kind of assay: Cell viability (CellTiter-Glo), GAK. It counts as cell-based. Conditions: GAK cell line, 3-4 days of culture. The method, then: as §1
Cell line GAK (JCRB, No. JCRB0180) was cultured in 20% fetal bovine serum-containing Ham's F12 medium (+P/S).
as §2

The subject of another assay is SF126. Put plainly: Cell viability (CellTiter-Glo), SF126. It counts as cell-based. The settings on record: Homo sapiens, SF-126; SF126 cell line, 3-4 days of culture. On the procedure: as §1, with “follows: Cell line SF126 (JCRB, No. IFO50286) was cultured in 10% fetal bovine serum-containing EMEM medium (+P/S). […] Cell viability was detected using the Promega CellTiter-Glo kit, the kit reflected cell viability by directly measuring intracellular ATP content.” for “follows:”

The test system of another assay is 769-P. Kind of assay: Cell viability (CellTiter-Glo), 769-P. Type of assay: cell-based. Conditions: Homo sapiens; 769-P cell line, 3-4 days of culture. The method, then:
as §1
Cell line 769-P (ATCC, No. CRL-1933) was cultured in 10% fetal bovine serum-containing RPMI1640 medium (+P/S).
as §2

A further assay deals with OCI-AML-3. Put plainly: Cell viability (CellTiter-Glo), OCI-AML-3. Conditions: Homo sapiens; OCI-AML-3 cell line, 3-4 days of culture. Type of assay: cell-based. On the procedure:
as §1
Cell line OCI-AML-3 (DSMZ, No. ACC-582) was cultured in 20% fetal bovine serum-containing RPMI1640 medium (+P/S).
as §2

For another assay, the system named is PANC-1. Kind of assay: Cell viability (CellTiter-Glo), PANC-1. It counts as cell-based. Conditions: Homo sapiens; PANC-1 cell line, 3-4 days of culture. On the procedure: as §1
Cell line PANC-1 (ATCC, No. CRL-1469) was cultured in 10% fetal bovine serum-containing DMEM medium (+P/S).
as §2

A further assay has as its system CCRF-CEM. Kind of assay: Cell viability (CellTiter-Glo), CCRF-CEM. Conditions: Homo sapiens; CCRF-CEM cell line, 3-4 days of culture. It counts as cell-based. The method, then:
as §1
Cell line CCRF-CEM (ATCC, No. CCL-119) was cultured in 10% fetal bovine serum-containing RPMI1640 medium (+P/S).
as §2

In a further assay the test system is PC-3. Put plainly: Cell viability (CellTiter-Glo), PC-3. It counts as cell-based. Conditions: Homo sapiens; PC-3 cell line, 3-4 days of culture. The method, then: as §1
Cell line PC-3 (ATCC, No. CRL-1435) was cultured in 10% fetal bovine serum-containing F-12K medium (+P/S).
as §2

The next assay has as its system U-251 MG. Kind of assay: Cell viability (CellTiter-Glo), U-251 MG. Type of assay: cell-based. Conditions: Homo sapiens; U-251 MG cell line, 3-4 days of culture. On the procedure:
as §1
Cell line U-251 MG (ECACC, No. 9063001) was cultured in EMEM medium containing 2 mM glutamine, 1% NEAA, 1 mM sodium pyruvate (NaP) and 10% fetal bovine serum (+P/S).
as §2

For the next assay, the system named is OCI-AML-4. Put plainly: Cell viability (CellTiter-Glo), OCI-AML-4. Type of assay: cell-based. The settings on record: OCI-AML-4 cell line, 3-4 days of culture. On the procedure:
as §1
Cell line OCI-AML-4 (DSMZ, No. ACC-729) was cultured in alpha-MEM medium containing 20% fetal bovine serum and 20% volume fraction of 5637 cell line adjusted medium (+P/S).
as §2

Another assay concerns mTOR pathway (p-S6). Kind of assay: Western Blot of p-S6 protein in tumor cells after inhibitor treatment. Type of assay: cell-based, human. The settings on record: 1 μM or 3 μM Gboxin, 1 μM Oligomycin A, 12 h; for activity of mTOR pathway (p-S6): FIG. 3; for content of p-S6 protein (activity of mTOR pathway): FIG. 2. On the procedure: The inhibition of mitochondrial oxidative phosphorylation pathway could cause the activation of ATF4 stress pathway and the decrease of mTOR pathway activity, the activity of the mTOR pathway was reflected by the expression level of phosphorylated ribosomal protein S6 (ie, p-S6).
The tumor cells NCI-H82, G-401 and WSU-DLCL2 were cultured in the relevant 10% FBS-containing medium (+p/s), and incubated overnight, then 1 μM Gboxin, 3 μM Gboxin or 1 μM Oligomycin A as shown in FIG. 2 was added. After 12 h of incubation, the content of ATF4 and p-S6 protein was detected using Western Blot, the experiment result was shown in FIG. 2.
The cell lines SF126, CFPAC-1 and 786-O were cultured in the relevant 10% FBS-containing medium (+p/s), and incubated overnight, then 1 μM Gboxin, 3 μM Gboxin or 1 μM Oligomycin A as shown in FIG. 3 was added. After 12 h of incubation, the content of ATF4 and p-S6 protein was detected using Western Blot, the experiment result was shown in FIG. 3.

The next assay relates to MJ. Put plainly: Cell viability (CellTiter-Glo), MJ. Type of assay: cell-based. The settings on record: Homo sapiens; MJ cell line, 3-4 days of culture. On the procedure: as §1
Cell line MJ (ATCC, No. CRL-8294) was cultured 20% fetal bovine serum-containing IMDM medium (+P/S).
as §2

Where only a bound is given, the exact number is not on record here.

For the compound `CCc1n(CC(=O)O[C@@H]2C[C@H](C)CC[C@H]2C(C)C)c2ccccc2[n+]1C.[Cl-]` [Gboxin], the IC50 was > 30 µM in the assay on COLO 320HSR; 12.3 µM with U-87 MG; 13.3 µM in the assay on Gp2D; 21.7 µM with OCI-M1; 7.05 µM in the assay with GAK; > 30 µM in the assay on SF126. Besides, the IC50 in the assay on 769-P was > 30 µM; in the assay on OCI-AML-3, 1460 nM; in the assay on PANC-1, 12 µM; in the assay on CCRF-CEM, 2590 nM; with PC-3, 21.3 µM; with U-251 MG it was 16.7 µM. In addition, the IC50 with OCI-AML-4 amounted to 3.34 µM; with MJ it was 12.9 µM. In addition, the “activity of mTOR pathway (p-S6)” value in the assay on mTOR pathway (p-S6) (786-O cells), in the assay on mTOR pathway (p-S6) (CFPAC-1 cells) and in the assay on mTOR pathway (p-S6) (SF126 cells) was “no significant changes” throughout. Moreover, the “content of p-S6 protein (activity of mTOR pathway)” value in the assay with mTOR pathway (p-S6) (G-401 cells), in the assay on mTOR pathway (p-S6) (NCI-H82 cells) and in the assay on mTOR pathway (p-S6) (WSU-DLCL2 cells) was “decreased” throughout.
